Reference: the Deep4Chem optical property database
Blank lines part the entries; values can stand above or below the molecule they belong to.

Assay: solvent given as SMILES

fluorescence lifetime (in C1CCCCC1): 20.6 ns
fluorescence lifetime (in CC#N): 25.8 ns
fluorescence lifetime (in CO): 22.9 ns
fluorescence lifetime (in ClCCl): 22 ns
SMILES: COc1c2ccccc2c(OC)c2c1c1ccc(C)cc1n2C

fluorescence lifetime (in ClCCl): 2.67 ns
SMILES: c1ccc(N2N=C(c3ccc4ccc5cccc6ccc3c4c56)CC2c2ccc3ccc4cccc5ccc2c3c45)cc1 (stereo not given)

fluorescence lifetime (in ClCCl): 5 ns
SMILES: CC(C)(C)c1ccc2c(c1)sc1[n+]2[B-](F)(F)n2c(c3cccc4c(Br)ccc2c43)=N1

fluorescence lifetime (in ClCCl): 12.6 ns
SMILES: CCN(CC)c1ccc2cc(-c3nc4c5ccccc5c5ccccc5c4n3-c3ccc(C(C)(C)C)cc3)c(=O)oc2c1

fluorescence lifetime (in ClC(Cl)Cl): 0.62 ns
fluorescence lifetime (in ClCCl): 0.53 ns
SMILES: COc1cc2cc(OC)c(-c3ccc([N+](=O)[O-])cc3)cc2cc1-c1ccc([N+](=O)[O-])cc1

fluorescence lifetime (in CO): 59 ns
SMILES: O=C(O)CCCOc1cc2ccc3cccc4ccc(c1)c2c34

fluorescence lifetime (in ClCCl): 4.7 ns
SMILES: O=P1(c2ccccc2)C(c2ccc(N(c3ccccc3)c3ccccc3)cc2)=Cc2cc3ccccc3cc21 (stereo not given)

fluorescence lifetime (in C1CCCCC1): 0.34 ns
fluorescence lifetime (in CC#N): 0.196 ns
fluorescence lifetime (in CCO): 0.253 ns
fluorescence lifetime (in CCOC(C)=O): 0.237 ns
fluorescence lifetime (in CO): 0.197 ns
fluorescence lifetime (in OCC(F)(F)F): 0.323 ns
SMILES: Cc1ccc(C2=C3C=CC=[N+]3[B-](F)(F)n3cccc32)cc1

More lines, now with the values behind:

SMILES: CC1(C)C(/C=C/C2=C(Cl)C(=C/C=C3/N(CCCS(=O)(=O)[O-])c4ccccc4C3(C)C)/CCC2)=[N+](CCCS(=O)(=O)[O-])c2ccccc21
fluorescence lifetime (in CO): 0.529 ns

SMILES: CCC12C(=C3C(=C4c5ccccc5S(=O)(=O)C41CC)C(F)(F)C(F)(F)C3(F)F)c1ccccc1S2(=O)=O (stereo not given)
fluorescence lifetime (in C1COCCO1): 1.2 ns

SMILES: c1ccc(N(c2ccccc2)c2c3ccccc3c(N(c3ccccc3)c3ccccc3)c3ccccc23)cc1
fluorescence lifetime (in Cc1ccccc1): 13 ns

SMILES: C#Cc1ccc2ccc3cccc4ccc1c2c34
fluorescence lifetime (in C1CCCCC1): 14.9 ns
fluorescence lifetime (in CC#N): 13.4 ns
fluorescence lifetime (in CO): 17.8 ns
fluorescence lifetime (in ClCCl): 20.5 ns

SMILES: COc1ccc(-c2cc(-c3ccc(C)cc3)nc3c(C#N)c(N4CCCC4)nc(N)c23)cc1
fluorescence lifetime (in CC#N): 11.7 ns
fluorescence lifetime (in CC(C)=O): 11.3 ns
fluorescence lifetime (in CC(C)O): 11.7 ns
fluorescence lifetime (in CO): 10.3 ns
fluorescence lifetime (in ClC(Cl)Cl): 13.1 ns
fluorescence lifetime (in ClCCl): 13.3 ns
fluorescence lifetime (in c1ccccc1): 12 ns

SMILES: Cc1cc(C#Cc2ccccc2)c2ccc3c(C#Cc4ccccc4)cc(C#Cc4ccccc4)c4ccc1c2c43
fluorescence lifetime (in CS(C)=O): 1.89 ns
fluorescence lifetime (in ClC(Cl)(Cl)Cl): 1.57 ns

SMILES: C(#Cc1ccccc1)C(C#Cc1ccccc1)=Cc1ccc(-c2ccc(C=C(C#Cc3ccccc3)C#Cc3ccccc3)cc2)cc1
fluorescence lifetime (in ClC(Cl)Cl): 0.7 ns

SMILES: Cc1cc(C)c(B(c2ccccc2-n2c3ccccc3c3ccccc32)c2c(C)cc(C)cc2C)c(C)c1
fluorescence lifetime (in Cc1ccccc1): 38 ns

SMILES: CCCCCCN(CCCCCC)c1ccc(C#Cc2ccc(C#N)cc2)cc1
fluorescence lifetime (in CC#N): 1 ns
fluorescence lifetime (in CO): 1 ns
fluorescence lifetime (in ClCCl): 2.8 ns

SMILES: NCCCCCCCCCCCCN1C(=O)c2ccc3c4ccc5c6c(ccc(c7ccc(c2c37)C1=O)c64)C(=O)N(CCCCCCCCCCCCN)C5=O
fluorescence lifetime (in CN(C)C=O): 4.1 ns

SMILES: CN1C(=CC=Cc2nc3nc4ccccc4nc3s2)C(C)(C)c2ccccc21
fluorescence lifetime (in CCCCCCC(C)O): 1.04 ns
fluorescence lifetime (in CCOC(C)=O): 0.92 ns
fluorescence lifetime (in CO): 0.18 ns
fluorescence lifetime (in CS(C)=O): 1.04 ns
fluorescence lifetime (in Cc1ccccc1): 0.11 ns
fluorescence lifetime (in ClC(Cl)Cl): 1.08 ns
fluorescence lifetime (in ClCCl): 0.99 ns

SMILES: COc1ccc2c(c1)sc1[n+]2[B-](F)(F)OC(c2ccc(N(C)C)cc2)=N1
fluorescence lifetime (in Cc1ccccc1): 1.59 ns

SMILES: Cc1cc(C)cc(C)c1
fluorescence lifetime (in C1CCCCC1): 73 ns

SMILES: c1ccc(-c2ccc(-c3ccc(-c4cc(-c5ccc(-c6ccc(-c7ccccc7)cc6)cc5)cc(-c5ccc(-c6ccc(-c7ccccc7)cc6)cc5)c4)cc3)cc2)cc1
fluorescence lifetime (in C1COCCO1): 1.05 ns

SMILES: CCC(CC)COC1=CC2=C3c4cc(OCC(CC)CC)c(-c5cccs5)n4[B-](F)(F)[n+]4nnn(c43)[B-](F)(F)[N+]2=C1c1cccs1
fluorescence lifetime (in C1CCOC1): 0.5 ns
fluorescence lifetime (in ClCCl): 0.5 ns

SMILES: CCCN1C(=O)c2c3c(c4c(c2C1=O)CCc1cc(-c2ccc(N(C)C)cc2)c(OC)cc1-4)-c1cc(OC)c(-c2ccc(N(C)C)cc2)cc1CC3
fluorescence lifetime (in C1CCCCC1): 5.13 ns
fluorescence lifetime (in C1CCOC1): 0.93 ns
fluorescence lifetime (in CCOC(C)=O): 0.85 ns
fluorescence lifetime (in Cc1ccccc1): 5.64 ns
fluorescence lifetime (in ClCCl): 0.38 ns

SMILES: c12c3c4c5c1c1c6c7c2c2c8c3c3c9c4c4c%10c5c5c1c1c6c6c%11c%12c%13c%14c%15c%16c%17c%14c%14c%18c%13c%11c1c1c5c%10c5c(c%14c%10c%17c%11c%13c%16c%14c%16c%15c%12c%12c%16c(c2c7c%126)c2c8c3c(c%13c%142)c2c9c4c5c%10c%112)c%181
fluorescence lifetime (in CC1CCCCC1): 0.65 ns

SMILES: CCCCCC(=O)c1c2c(c(C(=O)CCCCC)c3c1OC1(CCCC1)O3)OC1(CCCC1)O2
fluorescence lifetime (in CC#N): 20.3 ns
fluorescence lifetime (in CCCCCC): 15.3 ns
fluorescence lifetime (in CCO): 11.6 ns
fluorescence lifetime (in CO): 5.9 ns
fluorescence lifetime (in ClCCl): 24.4 ns

SMILES: Nc1cccc2c1C(=O)NC2=O
fluorescence lifetime (in C1CCOC1): 15.2 ns
fluorescence lifetime (in CCO): 16.3 ns
fluorescence lifetime (in CN(C)C=O): 15.8 ns
